Test systems include SNB-19 CNS; SK-MEL-5 melanoma; LOX IMVI melanoma; NCI-H522 lung; K-562 leukemia; A498 renal; NCI-H460 lung; HT29 colon; NCI-H226 lung; SF-539 CNS.
What all share (test): inhibition of tumour cell growth, NCI panel, 48 h

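These data come from cells grown in 96-well plates and exposed to compound for 48 hours at five concentrations. Definition used: TGI = concentration required for complete inhibition of growth.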 Some results are limits rather than exact numbers.

Take `COc1ccc(NS(=O)(=O)c2ccc(NC(NC(=O)CC(C)C)(C(F)(F)F)C(F)(F)F)cc2)nn1`: the TGI in the assay on SNB-19 CNS, in the assay on SK-MEL-5 melanoma, in the assay on LOX IMVI melanoma, with NCI-H522 lung, with K-562 leukemia and in the assay on A498 renal was greater than 100 µM in each case. The TGI with NCI-H460 lung, in the assay with HT29 colon, in the assay with NCI-H226 lung and in the assay on SF-539 CNS was greater than 100 µM each time.

Turning to `COc1nc2nccnc2c(=O)n1C`, the TGI in the assay with SNB-19 CNS, in the assay on SK-MEL-5 melanoma, in the assay on LOX IMVI melanoma, in the assay on NCI-H522 lung, with K-562 leukemia and in the assay with A498 renal was greater than 10 µM in each case. The TGI in the assay on NCI-H460 lung, in the assay with HT29 colon, in the assay with NCI-H226 lung and with SF-539 CNS was greater than 10 µM each time.

With `NC(CCC(=O)NC(CSCC1C(=O)Nc2ccccc21)C(=O)NCC(=O)O)C(=O)O` (centres undefined), the TGI in the assay on SNB-19 CNS is greater than 100 µM; in the assay with SK-MEL-5 melanoma, greater than 44.8 µM; in the assay on LOX IMVI melanoma, 2.78 µM; in the assay on NCI-H522 lung it was 2.8 µM; with A498 renal, 33.1 µM; in the assay with NCI-H460 lung it was 37.2 µM. The results for the TGI in the assay with HT29 colon, with NCI-H226 lung and in the assay with SF-539 CNS were 14.7 µM, 21.9 µM and 18.3 µM, respectively.

Turning to `CCN1CCC(O)(/C=C/c2ccc(C)cc2C)C(C(=O)/C=C/c2ccc(C)cc2C)C1` (centres undefined), the TGI in the assay with SNB-19 CNS is 20.3 µM; with SK-MEL-5 melanoma, 9.23 µM; in the assay on LOX IMVI melanoma, 3.71 µM; in the assay on NCI-H522 lung, 3.73 µM; with K-562 leukemia, greater than 100 µM; in the assay with A498 renal, 22.7 µM. Besides, the TGI in the assay on NCI-H460 lung was determined as 3.32 µM; in the assay with HT29 colon, 5.44 µM; with NCI-H226 lung, 7.79 µM; in the assay with SF-539 CNS, 4.18 µM.

On to `O=NN(CCCl)C(=O)NC1CCC(O)CC1` (centres undefined), for which the TGI was greater than 100 µM in the assay on SNB-19 CNS; greater than 100 µM in the assay on SK-MEL-5 melanoma; greater than 60.6 µM with LOX IMVI melanoma; 55.4 µM in the assay on NCI-H522 lung; greater than 77.6 µM in the assay on K-562 leukemia; greater than 100 µM in the assay with A498 renal. For the same compound, the TGI was greater than 100 µM in the assay on NCI-H460 lung, greater than 100 µM with HT29 colon, greater than 100 µM in the assay with NCI-H226 lung and greater than 61 µM in the assay on SF-539 CNS.

For `Nc1nc(Cl)cc(NCC2(CO)CCCC2)n1`, the TGI in the assay with SNB-19 CNS, with SK-MEL-5 melanoma, in the assay with LOX IMVI melanoma, in the assay with NCI-H522 lung, in the assay with K-562 leukemia and in the assay on A498 renal was greater than 100 µM in each case. The TGI with NCI-H460 lung, with HT29 colon, in the assay with NCI-H226 lung and with SF-539 CNS was greater than 100 µM throughout.

`COc1ccc2c(cnc3c4cc(OC)c(OC)cc4ccc23)c1`: the TGI with SNB-19 CNS, in the assay on SK-MEL-5 melanoma, in the assay on LOX IMVI melanoma, with NCI-H522 lung, with K-562 leukemia and in the assay with A498 renal was greater than 100 µM throughout. The TGI in the assay with NCI-H460 lung, in the assay on HT29 colon, in the assay on NCI-H226 lung and in the assay on SF-539 CNS was greater than 100 µM throughout.

As for `O=C(O)c1ccc(OCc2nc3cc(C(F)(F)F)ccc3nc2-c2ccccc2)cc1`, the TGI in the assay on SNB-19 CNS, with SK-MEL-5 melanoma, in the assay on LOX IMVI melanoma, in the assay with NCI-H522 lung, in the assay with K-562 leukemia and in the assay with A498 renal was greater than 100 µM in each case. In addition, the TGI in the assay on NCI-H460 lung is greater than 100 µM; in the assay on HT29 colon, greater than 100 µM; with NCI-H226 lung, greater than 100 µM; in the assay on SF-539 CNS, 76.8 µM.

Regarding `C=CC[C@]12C=C(OC)[C@@H](O)[C@](OC)(C(c3cc(OC)c4c(c3)OCO4)[C@H]1C)[C@H]2OC(C)=O` (some centres undefined), the TGI in the assay on SNB-19 CNS, in the assay on SK-MEL-5 melanoma, with NCI-H522 lung, with K-562 leukemia, in the assay with A498 renal and in the assay on NCI-H460 lung was greater than 100 µM throughout. Besides, the TGI in the assay on HT29 colon, in the assay with NCI-H226 lung and in the assay on SF-539 CNS was greater than 100 µM each time.

As for `Cc1ccc2c(c1)C(=O)C1(C2)Cc2cccc(C)c2C1=O` (centres undefined), the TGI in the assay on SNB-19 CNS, in the assay on SK-MEL-5 melanoma, with LOX IMVI melanoma, with NCI-H522 lung, with K-562 leukemia and with A498 renal was greater than 100 µM each time. The TGI with NCI-H460 lung, in the assay on HT29 colon, with NCI-H226 lung and with SF-539 CNS was greater than 100 µM in each case.

On to `N#CC1=C(N)N(c2ccccc2)C(c2ccccc2)C1(C#N)C#N` (centres undefined), for which the TGI with SNB-19 CNS was 43.2 µM; with SK-MEL-5 melanoma it was 26.9 µM; in the assay with LOX IMVI melanoma, 30.3 µM; in the assay on NCI-H522 lung, 34.9 µM; in the assay with K-562 leukemia it was 26.5 µM; with A498 renal it was 33.6 µM. The TGI in the assay on HT29 colon was found to be 30.2 µM; in the assay with NCI-H226 lung it was 36.2 µM; in the assay on SF-539 CNS, 32.5 µM.

For `CC(C)(Cl)C(Br)CCC(=CCCl)CBr` (mixture of isomers), the TGI was 6.87 µM in the assay with SNB-19 CNS; 11.9 µM in the assay on SK-MEL-5 melanoma; 2.24 µM with NCI-H522 lung; greater than 20.1 µM in the assay on K-562 leukemia; 9.22 µM in the assay with A498 renal; 5.71 µM with NCI-H460 lung. The values for the TGI in the assay on HT29 colon, with NCI-H226 lung and in the assay on SF-539 CNS were 3.55 µM, 45 µM and 3.96 µM, respectively.

As for `CC(=O)OCC1OC(n2c3c(cc(C#N)c2=S)CCCCC3)C(OC(C)=O)C(OC(C)=O)C1OC(C)=O` (centres undefined), the TGI with SNB-19 CNS, with SK-MEL-5 melanoma, with LOX IMVI melanoma, in the assay on NCI-H522 lung, in the assay on K-562 leukemia and in the assay on A498 renal was greater than 100 µM each time. Also, the TGI in the assay on NCI-H460 lung, in the assay on HT29 colon, in the assay on NCI-H226 lung and in the assay on SF-539 CNS was greater than 100 µM throughout.

With `CC1CCCC(CC(=O)O)(CC(=O)O)C1` (centres undefined), the TGI in the assay with SNB-19 CNS, with SK-MEL-5 melanoma, with LOX IMVI melanoma, with NCI-H522 lung, in the assay on K-562 leukemia and in the assay on A498 renal was greater than 100 µM in each case. Further, the TGI in the assay on NCI-H460 lung, with HT29 colon, in the assay with NCI-H226 lung and in the assay with SF-539 CNS was greater than 100 µM throughout.

Consider `C=CCOc1ccc(C2C(C(=O)OCC)C(=O)CC(C)(O)C2C(=O)OCC)cc1OC` (centres undefined), for which the TGI in the assay on SNB-19 CNS, in the assay on SK-MEL-5 melanoma, with LOX IMVI melanoma, in the assay on NCI-H522 lung, in the assay with K-562 leukemia and in the assay with A498 renal was greater than 100 µM throughout. In addition, the TGI in the assay with NCI-H460 lung, in the assay with HT29 colon, in the assay with NCI-H226 lung and in the assay on SF-539 CNS was greater than 100 µM in each case.

`COC1C=COC2(C)Oc3c(C)c(O)c4c(O)c(c(C5SCCS5)c(O)c4c3C2=O)NC(=O)C(C)=C/C=C\C(C)C2OC(C)(C)OC(C2C)C(C)C(OC(C)=O)C1C` (centres undefined): the TGI with SNB-19 CNS was greater than 100 µM; in the assay on SK-MEL-5 melanoma, 15.5 µM; in the assay on LOX IMVI melanoma it was 28.3 µM; with NCI-H522 lung it was 23 µM; in the assay with K-562 leukemia, greater than 100 µM; in the assay on A498 renal, 29.3 µM. Also, the TGI with NCI-H460 lung came to 63.2 µM; in the assay on NCI-H226 lung it was 22.1 µM; with SF-539 CNS, 86.4 µM.

For the compound `CC1=C(CO)C(=O)O[C@@H]([C@@H](CO)[C@H]2CCC3C4C[C@@H](O)[C@@]5(O)CC=CC(=O)[C@]5(C)C4CC[C@@]32C)C1` (some centres undefined), the TGI with SNB-19 CNS, in the assay with SK-MEL-5 melanoma, in the assay with LOX IMVI melanoma, in the assay with NCI-H522 lung, in the assay on K-562 leukemia and in the assay with A498 renal was greater than 100 µM throughout. Moreover, the TGI in the assay with HT29 colon, in the assay with NCI-H226 lung and in the assay with SF-539 CNS was greater than 100 µM throughout.

For `O=C1c2cccnc2-c2nccc3c2c1nc1cc(Br)ccc13`, the TGI in the assay with SNB-19 CNS worked out at 0.88 µM; in the assay with SK-MEL-5 melanoma it was 0.263 µM; in the assay with LOX IMVI melanoma, 0.205 µM; in the assay with NCI-H522 lung, 0.29 µM; with A498 renal, 0.0659 µM; in the assay on NCI-H460 lung it was 0.304 µM. Further, the TGI in the assay with HT29 colon was determined as 2.45 µM; in the assay with NCI-H226 lung, 0.855 µM; in the assay on SF-539 CNS it was 0.709 µM.

Regarding `CN1COCc2c1ccc1cc3ccc4c(c3nc21)COCN4S(C)(=O)=O`, the TGI in the assay with SNB-19 CNS, in the assay on SK-MEL-5 melanoma, in the assay with LOX IMVI melanoma, in the assay with NCI-H522 lung, in the assay with K-562 leukemia and with A498 renal was greater than 100 µM each time. Also, the TGI in the assay with NCI-H460 lung, in the assay with HT29 colon and in the assay with NCI-H226 lung was greater than 100 µM each time.

For the compound `CN1[C@@H]2C[C@@H](OC(=O)[C@H](CO)c3ccccc3)C[C@H]1[C@@H]1O[C@@H]12`, the TGI in the assay on SK-MEL-5 melanoma, in the assay with LOX IMVI melanoma, with NCI-H522 lung, with K-562 leukemia, in the assay with A498 renal and with HT29 colon was greater than 100 µM each time. The TGI with NCI-H226 lung was greater than 100 µM.

Values taken from PubChem BioAssay (NCI).
